Test results from PMC8551148, “Identification and characterization of deschloro-chlorothricin obtained from a large natural product library targeting aurora A kinase in multiple myeloma” (Investigational New Drugs, 2020).

Molecular target: T1, Aurora A kinase (AURKA) (Homo sapiens, UniProt O14965)
T1 sequence (O14965 1-403): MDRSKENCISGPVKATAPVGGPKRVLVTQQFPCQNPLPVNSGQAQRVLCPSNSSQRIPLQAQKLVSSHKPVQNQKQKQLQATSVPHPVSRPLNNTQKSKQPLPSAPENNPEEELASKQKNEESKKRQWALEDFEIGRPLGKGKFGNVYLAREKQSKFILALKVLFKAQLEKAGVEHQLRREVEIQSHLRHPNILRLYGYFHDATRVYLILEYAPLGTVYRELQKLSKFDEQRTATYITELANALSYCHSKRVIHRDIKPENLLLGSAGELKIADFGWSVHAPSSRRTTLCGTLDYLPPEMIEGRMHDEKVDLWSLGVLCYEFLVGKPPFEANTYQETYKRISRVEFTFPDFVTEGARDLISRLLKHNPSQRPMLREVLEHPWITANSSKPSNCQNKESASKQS
Assay: microscale thermophoresis with RED-NHS labelled purified AURKA ([…])
Type: binding

- Kd: 8.17 µM
SMILES: COc1cccc(C)c1C(=O)O[C@@H]1C[C@H](O[C@H]2[C@H](O)C[C@H](O[C@@H]3CCC[C@H]4[C@H]3C=C[C@@H]3CCCC/C=C\[C@H]5C=C(C(=O)O)[C@@H](C)C[C@@]56OC(=O)C(=C6O)OC(=O)[C@@]34C)O[C@@H]2C)O[C@H](C)[C@H]1O [Compound 5, deschloro-chlorothricin]
